The text below walks through data of US10138207B2, “Benzomorphan analogs and the use thereof” (priority 2012, dated 2018).

Structures are written as SMILES.

For assay [1], the target named is T1, μ-opioid receptor (Homo sapiens, UniProt P35372). As to the kind of experiment: μ-opioid receptor [35S]GTPγS functional assay, HEK-293 or CHO cells. The settings on record: for Emax: read-out: GTPγS μ Emax. A general note: Binding of GTPγS marks nucleotide exchange on a G protein.
For assay [2], the target named is T1, μ-opioid receptor. Kind of assay: μ-opioid receptor [35S]GTPγS functional assay, U-2 OS cells. The format is biochemical. Also noted: expressed in transfected cells; host or cells: U-2 OS. The settings on record: U-2 OS cells.
For the next assay, the target named is κ opioid receptor (Homo sapiens, UniProt P41145). Kind of assay: biochemical. The format is binding. Also noted: expressed in transfected cells; host or cells: HEK 293 (in-house membrane prep). To be noted: HEK-293 or CHO cells.
Sequence of κ opioid receptor (P41145 whole entry): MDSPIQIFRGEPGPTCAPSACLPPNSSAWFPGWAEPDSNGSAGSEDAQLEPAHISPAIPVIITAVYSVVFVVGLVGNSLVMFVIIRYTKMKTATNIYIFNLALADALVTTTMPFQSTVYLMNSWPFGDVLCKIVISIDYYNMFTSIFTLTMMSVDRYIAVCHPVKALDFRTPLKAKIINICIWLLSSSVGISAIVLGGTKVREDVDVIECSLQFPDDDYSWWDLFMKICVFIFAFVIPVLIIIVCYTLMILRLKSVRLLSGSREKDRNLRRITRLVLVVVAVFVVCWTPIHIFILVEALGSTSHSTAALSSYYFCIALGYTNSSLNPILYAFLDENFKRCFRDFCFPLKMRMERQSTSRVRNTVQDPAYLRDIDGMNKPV

T1 sequence (P35372 whole entry, species assumed): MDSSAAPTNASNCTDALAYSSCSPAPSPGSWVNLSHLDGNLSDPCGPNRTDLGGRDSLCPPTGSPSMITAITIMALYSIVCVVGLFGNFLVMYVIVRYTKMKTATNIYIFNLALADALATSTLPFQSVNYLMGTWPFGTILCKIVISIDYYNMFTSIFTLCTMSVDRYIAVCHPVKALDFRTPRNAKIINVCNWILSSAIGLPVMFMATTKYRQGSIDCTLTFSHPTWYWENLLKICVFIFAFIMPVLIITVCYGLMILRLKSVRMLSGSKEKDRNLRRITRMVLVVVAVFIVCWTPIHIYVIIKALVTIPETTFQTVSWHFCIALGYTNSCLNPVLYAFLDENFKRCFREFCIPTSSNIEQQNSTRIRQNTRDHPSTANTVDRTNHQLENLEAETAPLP

`CN1CC[C@]2(C)c3cc(O)ccc3CC1[C@@H]2CC(=O)Nc1ccc(C(=O)O)cc1` [Compound 32, 4-(2-((6S,11R)-8-hydroxy-3,6-dimethyl-1,2,3,4,5,6-hexahydro-2,6-methanobenzo[d]azocin-11-yl)acetamido)benzoic acid]: the EC50 at μ-opioid receptor [1] turned out to be 0.336 ± 0.0928 µM; at μ-opioid receptor [2] (read-out: GTPγS μ EC50), 233 ± 58.2 nM. Further, the Emax at μ-opioid receptor [1] is 23 ± 1.53%; at μ-opioid receptor [2] (relative to DAMGO, read-out: GTPγS μ Emax) it was 39.8 ± 2.46%. The compound further had a Ki on κ opioid receptor of 12.7 ± 2.09 µM.
As to `CN1CC[C@]2(C)c3cc(O)ccc3CC1[C@@H]2CC(=O)Nc1ccccc1C(=O)O` [Compound 35, 2-(2-((6S,11R)-8-hydroxy-3,6-dimethyl-1,2,3,4,5,6-hexahydro-2,6-methanobenzo[d]azocin-11-yl)acetamido)benzoic acid], at μ-opioid receptor [1], a half-maximal response (EC50) required 2.57 ± 0.783 µM and the Emax is 23 ± 0.58%. The same compound returned an inhibitory constant (Ki) at κ opioid receptor (bound in μM) greater than 20 µM.
In turn, `COc1ccc2c(c1)[C@@]1(C)CCN(C)C(C2)[C@@H]1c1cccc(C#N)c1` [Compound 36, 3-((6S,11R)-8-methoxy-3,6-dimethyl-1,2,3,4,5,6-hexahydro-2,6-methanobenzo[d]azocin-11-yl)benzonitrile] registered an EC50 at μ-opioid receptor [1] greater than 20 µM. The affinity on κ opioid receptor, expressed as Ki, was 4.19 ± 1.05 µM.
On μ-opioid receptor [1], `COc1ccc2c(c1)[C@@]1(C)CCN(C)C(C2)[C@]1(O)c1cccc(C#N)c1` [Compound 37, 3-((6R,11S)-11-hydroxy-8-methoxy-3,6-dimethyl-1,2,3,4,5,6-hexahydro-2,6-methanobenzo[d]azocin-11-yl)benzonitrile] registered an EC50 greater than 20 µM. Further, the Ki at κ opioid receptor (bound in μM) was greater than 20 µM.
`COc1ccc2c(c1)[C@@]1(C)CCN(C)C(C2)[C@@H]1c1cccc(C(=O)O)c1` [Compound 38, 3-((6S,11R)-8-methoxy-3,6-dimethyl-1,2,3,4,5,6-hexahydro-2,6-methanobenzo[d]azocin-11-yl)benzoic acid]: the EC50 at μ-opioid receptor [1] was greater than 20 µM. On κ opioid receptor, this compound yielded a Ki of 17.4 ± 5.98 µM.
Regarding `CN1CC[C@]2(C)c3cc(O)ccc3CC1[C@@H]2COc1cccc(C(=O)O)c1` [Compound 40, 3-(((6S,11R)-8-hydroxy-3,6-dimethyl-1,2,3,4,5,6-hexahydro-2,6-methanobenzo[d]azocin-11-yl)methoxy)benzoic acid], at μ-opioid receptor [1], the response was half-maximal at 3.07 ± 0.469 µM (EC50) and the maximal effect (Emax) is 25.7 ± 3.76%. At κ opioid receptor, affinity was put at a Ki of 3.12 ± 0.483 µM.
For the compound `CN1CC[C@]2(C)c3cc(O)ccc3C[C@@H]1[C@H]2COc1cccc(C(=O)O)c1` [Compound 41, 3-(((2R,6S,11S)-8-hydroxy-3,6-dimethyl-1,2,3,4,5,6-hexahydro-2,6-methanobenzo[d]azocin-11-yl)methoxy)benzoic acid], at μ-opioid receptor [1], the EC50 worked out at 1.22 ± 0.235 µM and the Emax turned out to be 46 ± 3.79%. In addition, the Ki on κ opioid receptor amounted to 1.88 ± 0.28 µM.
Compound `COc1ccc2c(c1)[C@@]1(C)CCN(C)C(C2)[C@@H]1c1cccc(-c2nnn[nH]2)c1` [Compound 42, (6S,11R)-11-(3-(1H-tetrazol-5-yl)phenyl)-8-methoxy-3,6-dimethyl-1,2,3,4,5,6-hexahydro-2,6-methanobenzo[d]azocine] showed an EC50 on μ-opioid receptor [1] greater than 20 µM. In addition, the Ki at κ opioid receptor (bound in μM) is greater than 20 µM.
For the compound `CN1CC[C@]2(C)c3cc(O)ccc3C[C@@H]1[C@H]2N(C)C(=O)c1cccc(C(=O)O)c1` [Compound 47, 3-(((2R,6R,11S)-8-hydroxy-3,6-dimethyl-1,2,3,4,5,6-hexahydro-2,6-methanobenzo[d]azocin-11-yl)(methyl)carbamoyl)benzoic acid], at μ-opioid receptor [1], the EC50 worked out at 8.89 ± 0.655 µM and the Emax was found to be 58.7 ± 5.24%. The compound further had a Ki on κ opioid receptor of 20 µM.
On to `CN1CC[C@]2(C)c3cc(O)ccc3C[C@@H]1[C@@H]2N(C)C(=O)c1cccc(C(=O)O)c1` [Compound 48, 3-(((2R,6R,11R)-8-hydroxy-3,6-dimethyl-1,2,3,4,5,6-hexahydro-2,6-methanobenzo[d]azocin-11-yl)(methyl)carbamoyl)benzoic acid], for which, at μ-opioid receptor [1], the response was half-maximal at 5.19 ± 0.549 µM (EC50) and the Emax is 26 ± 4.16%. The same compound yielded a Ki at κ opioid receptor (bound in μM) greater than 20 µM.
In the case of `CN1CC[C@]2(C)c3cc(O)ccc3CC1[C@@H]2C(=O)Nc1ccc(C(=O)O)cc1` [Compound 52, 4-((6S,11R)-8-hydroxy-3,6-dimethyl-1,2,3,4,5,6-hexahydro-2,6-methanobenzo[d]azocine-11-carboxamido)benzoic acid], on μ-opioid receptor [1], the EC50 turned out to be 1.03 ± 0.0731 µM and the maximal response (Emax) was 72.3 ± 3.48%. On κ opioid receptor (bound in μM), the inhibition constant Ki is greater than 20 µM.
For the compound `CN1CC[C@]2(C)c3cc(O)ccc3CC1[C@@H]2COc1cc(C(N)=O)ccn1` [Compound 53, 2-(((6S,11R)-8-hydroxy-3,6-dimethyl-1,2,3,4,5,6-hexahydro-2,6-methanobenzo[d]azocin-11-yl)methoxy)isonicotinamide], on μ-opioid receptor [1], it took 1.11 ± 0.21 µM to reach a half-maximal effect (EC50) and the Emax was determined as 82.7 ± 1.2%. The Ki on κ opioid receptor stood at 0.701 ± 0.058 µM.
Turning to `CN1CC[C@]2(C)c3cc(O)ccc3CC1[C@@H]2CC(=O)N1CCC[C@H]1C(=O)O` [Compound 55, (2S)-1-(2-((6S,11R)-8-hydroxy-3,6-dimethyl-1,2,3,4,5,6-hexahydro-2,6-methanobenzo[d]azocin-11-yl)acetyl)pyrrolidine-2-carboxylic acid], at μ-opioid receptor [1], the EC50 is 5.91 ± 0.422 µM and the maximum response (Emax) is 71 ± 8.08%. In addition, the Ki at κ opioid receptor (bound in μM) is greater than 20 µM.
Regarding `CN1CC[C@]2(C)c3cc(O)ccc3C[C@@H]1[C@@H]2N(C)C(=O)c1ccc(C(=O)O)cc1` [Compound 59, 4-(((2R,6R,11R)-8-hydroxy-3,6-dimethyl-1,2,3,4,5,6-hexahydro-2,6-methanobenzo[d]azocin-11-yl)(methyl)carbamoyl)benzoic acid], on μ-opioid receptor [1], the concentration for a half-maximal effect (EC50) turned out to be 3.44 ± 0.183 µM and the Emax stood at 76.3 ± 10.2%. The same compound yielded a Ki at κ opioid receptor (bound in μM) greater than 20 µM.
With `COc1ccc2c(c1)[C@@]1(C)CCN(C)C(C2)[C@@]1(O)c1cccc(C#N)c1` [Compound 60, 3-((6R,11R)-11-hydroxy-8-methoxy-3,6-dimethyl-1,2,3,4,5,6-hexahydro-2,6-methanobenzo[d]azocin-11-yl)benzonitrile], on μ-opioid receptor [1], the half-maximal effective concentration (EC50) came out at 6.09 ± 0.529 µM and the maximal effect (Emax) worked out at 38.3 ± 0.88%. The Ki on κ opioid receptor (bound in μM) is greater than 20 µM.
As for `COc1ccc2c(c1)[C@@]1(C)CCN(C)C(C2)[C@@H]1c1cccc(OCc2ccccc2)c1` [Compound 61, (6S,11R)-11-(3-(benzyloxy)phenyl)-8-methoxy-3,6-dimethyl-1,2,3,4,5,6-hexahydro-2,6-methanobenzo[d]azocine], at μ-opioid receptor [1], the EC50 stood at 5.76 ± 1.55 µM and the maximum response (Emax) is 26.7 ± 0.88%. This compound also returned a Ki at κ opioid receptor of 2.77 ± 0.85 µM.
Turning to `COC(=O)c1cccc([C@]2(O)C3Cc4ccc(OC)cc4[C@@]2(C)CCN3C)c1` [Compound 62, methyl 3-((6R,11R)-11-hydroxy-8-methoxy-3,6-dimethyl-1,2,3,4,5,6-hexahydro-2,6-methanobenzo[d]azocin-11-yl)benzoate], on μ-opioid receptor [1], the EC50 stood at 7.45 ± 0.47 µM and the maximum response (Emax) was 24 ± 2.97%. For the same compound, the Ki at κ opioid receptor (bound in μM) was greater than 20 µM.
Take `COC(=O)c1cccc([C@@]2(O)C3Cc4ccc(OC)cc4[C@@]2(C)CCN3C)c1` [Compound 64, methyl 3-((6R,11S)-11-hydroxy-8-methoxy-3,6-dimethyl-1,2,3,4,5,6-hexahydro-2,6-methanobenzo[d]azocin-11-yl)benzoate]: on μ-opioid receptor [1], the EC50 is greater than 20 µM. Besides, on κ opioid receptor, the affinity, expressed as Ki, was 12.4 µM.
For `COc1ccc2c(c1)[C@@]1(C)CCN(C)C(C2)[C@@]1(O)c1cccc(-c2nnn[nH]2)c1` [Compound 65, (6R,11R)-11-(3-(1H-tetrazol-5-yl)phenyl)-8-methoxy-3,6-dimethyl-1,2,3,4,5,6-hexahydro-2,6-methanobenzo[d]azocin-11-ol], at μ-opioid receptor [1], the EC50 came to 5.06 ± 1.15 µM and the Emax was 21.7 ± 2.85%. Further, the Ki at κ opioid receptor (bound in μM) is greater than 20 µM.
For `COc1ccc2c(c1)[C@@]1(C)CCN(C)C(C2)[C@]1(O)c1cccc(-c2nnn[nH]2)c1` [Compound 66, (6R,11S)-11-(3-(1H-tetrazol-5-yl)phenyl)-8-methoxy-3,6-dimethyl-1,2,3,4,5,6-hexahydro-2,6-methanobenzo[d]azocin-11-ol], at μ-opioid receptor [1], a half-maximal effect (EC50) was put at 6.61 ± 0.199 µM and the Emax is 20.7 ± 1.33%. The Ki on κ opioid receptor (bound in μM) was greater than 20 µM.
Consider `COc1ccc2c(c1)[C@@]1(C)CCN(C)C(C2)[C@@]1(O)c1cccc(C(N)=O)c1` [Compound 67, 3-((6R,11R)-11-hydroxy-8-methoxy-3,6-dimethyl-1,2,3,4,5,6-hexahydro-2,6-methanobenzo[d]azocin-11-yl)benzamide], for which the EC50 at μ-opioid receptor [1] is greater than 20 µM. The Ki on κ opioid receptor (bound in μM) is greater than 20 µM.
For the compound `COc1ccc2c(c1)[C@@]1(C)CCN(C)C(C2)C1N1CCCC1` (stereo partly drawn) [Compound 69, (6R)-8-methoxy-3,6-dimethyl-11-(pyrrolidin-1-yl)-1,2,3,4,5,6-hexahydro-2,6-methanobenzo[d]azocine], at μ-opioid receptor [1], the EC50 was greater than 20 µM and the Emax turned out to be 24.3 ± 2.96%. At κ opioid receptor, this compound displayed a Ki of 19.8 µM.
As to `COc1ccc2c(c1)[C@@]1(C)CCN(C)C(C2)[C@]1(O)c1cccc(C(=O)O)c1` [Compound 71, 3-((6R,11S)-11-hydroxy-8-methoxy-3,6-dimethyl-1,2,3,4,5,6-hexahydro-2,6-methanobenzo[d]azocin-11-yl)benzoic acid], at μ-opioid receptor [1], a half-maximal response (EC50) required 13 ± 1.14 µM and the Emax was determined as 23 ± 4.58%. At κ opioid receptor (bound in μM), this compound yielded a Ki greater than 20 µM.
For the compound `CN1CC[C@]2(C)c3cc(O)ccc3CC1[C@@H]2CC(=O)N1CCC(C(=O)O)CC1` [Compound 72, 1-(2-((6S,11R)-8-hydroxy-3,6-dimethyl-1,2,3,4,5,6-hexahydro-2,6-methanobenzo[d]azocin-11-yl)acetyl)piperidine-4-carboxylic acid], at μ-opioid receptor [1], a half-maximal response (EC50) required 4.89 ± 0.508 µM and the Emax amounted to 70.3 ± 8.33%. The compound also yielded a Ki at κ opioid receptor of 14.8 µM.
`COc1ccc2c(c1)[C@@]1(C)CCN(CC3CC3)[C@H](C2)[C@H]1N(C)CC(=O)O` [Compound 73, 2-(((2R,6R,11S)-3-(cyclopropylmethyl)-8-methoxy-6-methyl-1,2,3,4,5,6-hexahydro-2,6-methanobenzo[d]azocin-11-yl)(methyl)amino)acetic acid]: on μ-opioid receptor [1], the EC50 came to 18.1 ± 2.72 µM and the Emax is 25 ± 2.52%. The compound further gave a Ki on κ opioid receptor (bound in μM) greater than 20 µM.

One may read the EC50 as the concentration that produces a half-maximal response. The term Emax denotes the size of the effect at its maximum, as opposed to the concentration needed. Broadly, the Ki is the equilibrium dissociation constant of an inhibitor or competing ligand from its target.
